Like-named read-outs stand apart in the source and are kept apart here.
Experiments:
[1] = system: P. berghei oocysts in A. gambiae mosquitoes; assay: Membrane blood feeding assay (oocyst production in mosquitoes); type: in vivo, Plasmodium berghei; conditions: 10 µM in blood meal; 7 days
Protocol: The Anopheles gambiae mosquito G3 strain was reared under standard conditions at 28 °C and 80% humidity. One to two days before blood feeding, the mosquitoes were fed penicillin (20 U/mL) and streptomycin (20 μg/mL) in the sugar meal (10% sucrose). Mice were infected with the P. berghei mutant Bergreen, which constitutively expresses GFP [18]. Blood was obtained by heart puncture of one mouse, and aliquoted in two tubes that were immediately placed at 37 °C. YAT2150 at a final concentration of 10 µM diluted from a stock solution in dimethyl sulfoxide (DMSO) was added to one tube. The control tube contained the same concentration of DMSO (0.5%). After the feeding carried out in membrane feeders for 60 min, mosquitoes were kept at 19 °C and provided with sugar meal containing the antibiotics as above. Seven days after feeding, the mosquitoes were dissected in PBS, mounted in […]®, and GFP-positive oocysts were counted under an Axioskop 2 microscope (Zeiss, Oberkochen, Germany).

C. elegans = assay: In vivo toxicity in C. elegans; parameters: species or system Caenorhabditis elegans; conditions: non-encapsulated, 50 µM
Protocol: The Caenorhabditis elegans N2 Bristol strain (kindly provided by Dr. Christian Griñán-Ferré) was cultured, following established methods, in 90 mm Petri dishes containing solid Nematode Growth Media (NGM) seeded with E. coli OP50 (100 µL of an overnight culture spread on top of the NGM), maintained at 20 °C, and expanded to new plates once a week by transferring a 1-cm^3 NGM cube to a new plate. […] To do this, a plate with gravid adult worms was washed twice with 5 mL of M9 buffer (20 mM KH2PO4, 42 mM Na2HPO4, 86 mM NaCl, 1 mM MgSO4), and the nematodes were transferred to a 15-mL conical tube, where they were pelleted (400× g, 2 min). […] C. elegans viability and body length were analyzed after 48 h under a stereomicroscope (Leica M50 Routine Stereo Microscope; Leica Microsystems GmbH), taking representative images and videos with a 4× objective. C. elegans viability was determined in three experimentally independent replicas according to two variables: body shape (stiff, rod-like worms were counted as dead, as opposite to s-shaped live worms) and presence of movement in living C. elegans, with an n ≥ 100 worms/sample. Nematode body length was calculated with ImageJ software in worms anesthetized with 50 mM sodium azide. Statistically significant differences between groups were determined by the two-way analysis of variance (ANOVA) using GraphPad Prism 9.0.1.

[2] = Cytotoxicity assay in Caco-2 (resazurin); type: cell-based; conditions: human, read-out: Caco-2 inhibition (CC50)
[3] = Cytotoxicity assay in MCF7 (MTT); type: cell-based; conditions: human, MCF-7 cells, read-out: MCF7 inhibition (CC50)
Protocol: THP-1 human acute monocytic leukemia cells and NCI-H460 human lung carcinoma cells were grown in RPMI supplemented with 10% FBS. Hep-G2 human hepatocellular carcinoma cells were cultured in Eagle’s minimum essential medium (EMEM) supplemented with 10% FBS. A2780 human ovarian carcinoma cells were grown in RPMI supplemented with 10% FBS and 2 mM L-glutamine. MCF-7 human breast adenocarcinoma cells were cultured in EMEM containing 2 mM L-glutamine and Earle’s balanced salt solution adjusted with 1.5 g/L sodium bicarbonate, 0.1 mM non-essential amino acids, and 1 mM sodium pyruvate and supplemented with 10% FBS. […] Except for Caco-2 and HUVEC, inhibition of cell growth was evaluated using a protocol based on monitoring the transformation into formazan of the tetrazolium salt of MTT (3-(4,5-dimethylthiazol-2-yl)-2,5-diphenyltretrazolium bromide) by metabolically active cells. […] After 96 further h of incubation in the same conditions, 10 µL of a 5 mg/mL MTT solution in PBS was added to each sample, and the incubation was resumed for another 4 h. […] The absorbance measurement range was framed between one sample containing 4000 cells in plain growth medium (to determine the stable cell concentration) and another sample containing an equal cell number in growth medium supplemented with growth factors (to measure the maximum cell growth at 96 h).

[4] = Human plasma protein binding (Rapid Equilibrium Dialysis); type: in vitro ADME; conditions: pH 7.2, RED, 4 h at 37 °C
Protocol: The assay was carried out by Rapid Equilibrium Dialysis (RED). The compounds were dissolved at 5 μM in human plasma and added to the corresponding insert of the RED device (Thermo Fisher Scientific, Inc., Waltham, MA, USA), and dialysis was performed for 4 h at 37 °C in […], 25 mM tris-HCl, pH 7.2 (Tris BupH^TM, Thermo Fisher Scientific, Inc.). Then, 50-µL aliquots from each chamber were transferred to empty vials, to which 50 µL of dialysis buffer was added. As control, 50 µL of plasma was mixed with 50 µL of buffer. Three hundred µL of acetonitrile was added to all the samples, which were analyzed by ultra-performance liquid chromatography with tandem mass spectrometry as previously described.

3D7 P. falciparum = assay: Parasite-killing profile (parasite viability after 10x IC50); type: cell-based, Plasmodium falciparum; conditions: treatment for 24 h with 10× IC50
Protocol: After the treatment, the drug was removed and the culture diluted 1/3 and re-established in RBCs labeled with carboxyfluorescein diacetate succinimidyl ester (CFDA-SE, Life Technologies) to a 2% hematocrit in order to evaluate the reinfection capacity of the treated parasites. CFDA-SE-labelled erythrocytes were prepared by incubating 1% hematocrit in RPMI containing 10 μM CFDA-SE at 37 °C for 30 min, after which they were washed and maintained at 50% hematocrit at 4 °C for up to 24 h before use. Parasites were grown for 48 h, a complete replication cycle, in standard culturing conditions (5% O2, 5% CO2, and 90% N2 at 37 °C). After this incubation time, parasitemia was assessed by two-color flow cytometry (Attune NxT Flow Cytometer, Thermo Fisher Scientific, Inc.) using Hoechst 33342 to stain nuclei. Hoechst 33342 fluorescence signal was detected by exciting samples at 405 nm and collecting the emission with a 440/50-nm bandpass filter (VL1), whereas CFDA-SE was excited at 488 nm and detected with a 530/30 nm filter. Samples were analyzed using the Attune NxT software package 3.2.1, and parasite viability was plotted as the percentage of infected CFDA-SE-stained erythrocytes, using as reference untreated samples of the initial inoculum after 48 h of incubation with labeled erythrocytes.

[5] = system: P. falciparum asexual blood stages; conditions: read-out: in vitro IC50 in P. falciparum cultures, including gametocytes; cited from earlier work
[6] = system: P. falciparum gametocytes; conditions: cited from earlier work
[7] = cited from earlier work
[8] = human hepatocytes; cited from earlier work
[9] = system: P. falciparum asexual blood stages; assay: microbe, parasite or virus in culture; conditions: Plasmodium falciparum
Protocol: The asexual blood stages of P. falciparum parasites of the 3D7 strain (Malaria Research and Reference Reagent Resource Center, Manassas, VA, USA) were cultured in group B human RBCs at 3% hematocrit, which was kept throughout the experiments, and incubated in RPMIc. Parasites were maintained at 37 °C under an atmosphere of 5% O2, 5% CO2, and 90% N2. […] The parasites were then cultured under standard conditions for 48 h, allowing for a complete replication cycle. After the incubation period, 3 µL of culture from each well was mixed with 197 µL of PBS containing 0.1 µM Syto 11 (Thermo Fisher Scientific, Inc.) to obtain a final concentration of 1 × 10^6 to 10 × 10^6 cells/mL. Parasitemia levels were measured using an LSRFortessa flow cytometer equipped with a standard configuration of four lasers and 20 parameters. Single-cell populations were identified on a forward-side scatter plot. […] The inhibition data were then transformed using sigmoidal fitting to determine IC50.
For stage arrest assays, P. falciparum cultures were tightly synchronized in schizont stages by repeated treatment with 70% Percoll (GE Healthcare, Chicago, IL, USA) [26, 27]. […] Pictures were taken with a Nikon Eclipse 50i microscope equipped with a DS-Fi1 camera (Nikon Corporation, Tokyo, Japan).

CCN(CC)c1ccc(/C=C/c2cc[n+](CCCCCCCCCC[n+]3ccc(/C=C/c4ccc(N(CC)CC)cc4)c(C)c3)cc2C)cc1 [YAT2150]
oocyst number/midgut compared to the control [1]: significantly reduced | prevalence of infection compared to the control [1]: significantly reduced | nematode survival/length assay observation (C. elegans): No worms could be found | CC50 at 48 h [2]: 18200 ± 2600 nM | CC50 at 96 h [3]: 930 ± 10 nM | fraction unbound at 4 h, 5 μM [4]: 0.003 | parasite survival (3D7 P. falciparum): 8.5% | IC50 [5]: < 100 nM | IC50 ([6]; read-out: in vitro IC50 for P. falciparum gametocyte cultures): ~100 nM | IC50 ([6]; stage I–III (early) gametocytes, read-out: IC50 in P. falciparum stage I–III gametocytes): 95 ± 2 nM | IC50 ([6]; stage V gametocytes, read-out: IC50 in P. falciparum stage V gametocytes (converted)): 103 nM | Microsomal stability (% remaining after 1 h) ([7]; human microsomes, 37 °C): 54.6 ^7% | Microsomal stability T1/2 ([7]; human, microsomes): 80.5 ^7 min | Hepatocyte stability (% remaining after 2 h) [8]: 70.4 ^7% | Hepatocyte stability T1/2 [8]: 277.3 ^7 min | IC50 ([9]; 3D7, 48 h, read-out: IC50 in P. falciparum asexual blood stages): 90.5 ± 7 nM | IC80 ([9]; 3D7, read-out: IC80 (stage arrest assay)): 200 nM | IC50 ([9]; 2 h, read-out: IC50 ± SEM): 224 ± 27 nM

Reference: paper PMC11514582, “Leveraging the Aggregated Protein Dye YAT2150 for Malaria Chemotherapy” (Pharmaceutics, 2024)
